# Source: ChEMBL document CHEMBL3044789, “Comparing weed and crop seedling response to pre-emergence pendimethalin application in Corchorus olitorius and Abelmoschus esculentus” (Crop Prot, 2006)
# Assays:
# Corchorus olitorius [1] = assay: Phytotoxicity in Corchorus olitorius assessed as shoot length at 1.32 kg a.i/ha applied as solution after 7 weeks (reference value: 22.9 +/- 0.8 mm); type: organism-based; conditions: in vivo, other, 1176 h
# Calopogonium mucunoides [2] = assay: Herbicidal activity against Calopogonium mucunoides in Corchorus olitorius plots assessed as weed recovery at 0.33 kg a.i/ha after 2 weeks (reference value: 78.3 +/- 0.74 %); type: functional
# Calopogonium mucunoides [3] = assay: Herbicidal activity against Calopogonium mucunoides in Abelmoschus esculentus plots assessed as minor weed growth at 0.66 kg a.i/ha after 2 weeks; type: functional
# Calopogonium mucunoides [4] = assay: Herbicidal activity against Calopogonium mucunoides in Corchorus olitorius plots assessed as weed cover at 1.32 kg a.i/ha after 7 weeks (reference value: 1.7 +/- 0.56 %); type: functional
# Commelina diffusa = assay: Herbicidal activity against Commelina diffusa in Abelmoschus esculentus plots assessed as weed cover at 0.66 kg a.i/ha after 2 weeks (reference value: 63.5 +/- 0.29 %); type: functional
# Abelmoschus esculentus [5] = assay: Phytotoxicity in Abelmoschus esculentus assessed as shoot length at 0.99 kg a.i/ha applied as solution after 7 weeks (reference value: 28.7 +/- 0.34 mm); type: organism-based; conditions: in vivo, other, 1176 h
# Chromolaena odorata [6] = assay: Herbicidal activity against Chromolaena odorata in Corchorus olitorius plots assessed as minor weed growth at 0.99 kg a.i/ha after 2 weeks; type: functional
# Ageratum conyzoides [7] = assay: Herbicidal activity against Ageratum conyzoides in Corchorus olitorius plots assessed as weed cover at 1.32 kg a.i/ha after 4 weeks (reference value: 20.1+/- 0.57 %); type: functional
# Talinum fruticosum [8] = assay: Herbicidal activity against Talinum fruticosum in Abelmoschus esculentus plots assessed as weed cover at 0.99 kg a.i/ha after 2 weeks (reference value: 63.5 +/- 0.29 %); type: functional
# Ageratum conyzoides [9] = assay: Herbicidal activity against Ageratum conyzoides in Corchorus olitorius plots assessed as weed recovery at 0.33 kg a.i/ha after 2 weeks (reference value: 78.3 +/- 0.74 %); type: functional
# Calopogonium mucunoides [10] = assay: Herbicidal activity against Calopogonium mucunoides in Corchorus olitorius plots assessed as major weed growth at 0.99 kg a.i/ha after 2 weeks; type: functional
# Calopogonium mucunoides [11] = assay: Herbicidal activity against Calopogonium mucunoides in Abelmoschus esculentus plots assessed as weed cover at 1.32 kg a.i/ha after 2 weeks (reference value: 63.5 +/- 0.29 %); type: functional
# Synedrella nodiflora [12] = assay: Herbicidal activity against Synedrella nodiflora in Abelmoschus esculentus plots assessed as weed recovery at 1.32 kg a.i/ha after 2 weeks (reference value: 60.1 +/- 0.46 %); type: functional
# Calopogonium mucunoides [13] = assay: Herbicidal activity against Calopogonium mucunoides in Corchorus olitorius plots assessed as weed recovery at 0.66 kg a.i/ha after 2 weeks (reference value: 78.3 +/- 0.74 %); type: functional
# Cyperus rotundus [14] = assay: Herbicidal activity against Cyperus rotundus in Corchorus olitorius plots assessed as minor weed growth at 0.66 kg a.i/ha after 2 weeks; type: functional
# Abelmoschus esculentus [15] = assay: Phytotoxicity in Abelmoschus esculentus assessed as seedling injury at 0.99 kg a.i/ha applied as solution after 7 weeks relative to control; type: organism-based; conditions: in vivo, other, 1176 h
# Synedrella nodiflora [16] = assay: Herbicidal activity against Synedrella nodiflora in Corchorus olitorius plots assessed as weed recovery at 0.33 kg a.i/ha after 2 weeks (reference value: 78.3 +/- 0.74 %); type: functional
# Talinum fruticosum [17] = assay: Herbicidal activity against Talinum fruticosum in Corchorus olitorius plots assessed as weed recovery at 0.99 kg a.i/ha after 2 weeks (reference value: 78.3 +/- 0.74 %); type: functional
# Euphorbia heterophylla [18] = assay: Herbicidal activity against Euphorbia heterophylla in Abelmoschus esculentus plots assessed as weed cover at 1.32 kg a.i/ha after 7 weeks (reference value: 14.7 +/- 0.46 %); type: functional
# Calopogonium mucunoides [19] = assay: Herbicidal activity against Calopogonium mucunoides in Corchorus olitorius plots assessed as minor weed growth at 0.66 kg a.i/ha after 2 weeks; type: functional
# Abelmoschus esculentus [20] = assay: Phytotoxicity in Abelmoschus esculentus assessed as seedling emergence at 0.33 kg a.i/ha treated to soil after 7 weeks (reference value: 95 +/- 0.05 %); type: organism-based; conditions: in vivo, other, 1176 h
# Calopogonium mucunoides [21] = assay: Herbicidal activity against Calopogonium mucunoides in Corchorus olitorius plots assessed as weed cover at 0.33 kg a.i/ha after 2 weeks (reference value: 81.7 +/- 0.43 %); type: functional
# Cyperus rotundus [22] = assay: Herbicidal activity against Cyperus rotundus in Abelmoschus esculentus plots assessed as weed cover at 0.66 kg a.i/ha after 2 weeks (reference value: 63.5 +/- 0.29 %); type: functional
# Ageratum conyzoides [23] = assay: Herbicidal activity against Ageratum conyzoides in Corchorus olitorius plots assessed as weed cover at 1.32 kg a.i/ha after 7 weeks (reference value: 1.7 +/- 0.56 %); type: functional
# Chromolaena odorata [24] = assay: Herbicidal activity against Chromolaena odorata in Corchorus olitorius plots assessed as major weed growth at 0.33 kg a.i/ha after 2 weeks; type: functional
# Ageratum conyzoides [25] = assay: Herbicidal activity against Ageratum conyzoides in Abelmoschus esculentus plots assessed as weed cover at 0.33 kg a.i/ha after 7 weeks (reference value: 14.7 +/- 0.46 %); type: functional
# Synedrella nodiflora [26] = assay: Herbicidal activity against Synedrella nodiflora in Corchorus olitorius plots assessed as weed recovery at 0.66 kg a.i/ha after 2 weeks (reference value: 78.3 +/- 0.74 %); type: functional
# [27] = test system: Rottboellia cochinchinensis; assay: Herbicidal activity against Rottboellia cochinchinensis in Abelmoschus esculentus plots assessed as major weed growth at 0.33 kg a.i/ha after 2 weeks; type: functional
# Euphorbia heterophylla [28] = assay: Herbicidal activity against Euphorbia heterophylla in Corchorus olitorius plots assessed as weed cover at 1.32 kg a.i/ha after 7 weeks (reference value: 1.7 +/- 0.56 %); type: functional
# Corchorus olitorius [29] = assay: Phytotoxicity in Corchorus olitorius assessed as root length at 0.99 kg a.i/ha applied as solution after 7 weeks (reference value: 14.3 +/- 1.06 mm); type: organism-based; conditions: in vivo, other, 1176 h
# Corchorus olitorius [30] = assay: Phytotoxicity in Corchorus olitorius assessed as seed germination at 1.32 kg a.i/ha applied as solution after 7 weeks relative to untreated control; type: organism-based; conditions: in vivo, other, 1176 h
# Chromolaena odorata [31] = assay: Herbicidal activity against Chromolaena odorata in Corchorus olitorius plots assessed as weed recovery at 0.99 kg a.i/ha after 2 weeks (reference value: 78.3 +/- 0.74 %); type: functional
# Corchorus olitorius [32] = assay: Phytotoxicity in Corchorus olitorius assessed as root length at 1.32 kg a.i/ha applied as solution after 7 weeks (reference value: 14.3 +/- 1.06 mm); type: organism-based; conditions: in vivo, other, 1176 h
# Chromolaena odorata [33] = assay: Herbicidal activity against Chromolaena odorata in Corchorus olitorius plots assessed as weed recovery at 1.32 kg a.i/ha after 2 weeks (reference value: 78.3 +/- 0.74 %); type: functional
# Calopogonium mucunoides [34] = assay: Herbicidal activity against Calopogonium mucunoides in Abelmoschus esculentus plots assessed as weed cover at 1.32 kg a.i/ha after 7 weeks (reference value: 14.7 +/- 0.46 %); type: functional
# Synedrella nodiflora [35] = assay: Herbicidal activity against Synedrella nodiflora in Corchorus olitorius plots assessed as major weed growth at 0.33 kg a.i/ha after 2 weeks; type: functional
# [36] = test system: Rottboellia cochinchinensis; assay: Herbicidal activity against Rottboellia cochinchinensis in Abelmoschus esculentus plots assessed as weed recovery at 0.33 kg a.i/ha after 2 weeks (reference value: 60.1 +/- 0.46 %); type: functional
compound,measurement,setting,value
CCC(CC)Nc1c([N+](=O)[O-])cc(C)c(C)c1[N+](=O)[O-] [PENDIMETHALIN],Activity,Corchorus olitorius [1],5.3 mm
same,Activity,Calopogonium mucunoides [2],31.7%
same,Activity,Calopogonium mucunoides [3],1 /m2
same,Activity,Calopogonium mucunoides [4],95%
same,Activity,Commelina diffusa,50.8%
same,Activity,Abelmoschus esculentus [5],14.7 mm
same,Activity,Chromolaena odorata [6],1 /m2
same,Activity,Ageratum conyzoides [7],33.3%
same,Activity,Talinum fruticosum [8],47.9%
same,Activity,Ageratum conyzoides [9],31.7%
same,Activity,Calopogonium mucunoides [10],31 /m2
same,Activity,Calopogonium mucunoides [11],45%
same,Activity,Synedrella nodiflora [12],33.2%
same,Activity,Calopogonium mucunoides [13],33.3%
same,Activity,Cyperus rotundus [14],1 /m2
same,Activity,Abelmoschus esculentus [15],47.9%
same,Activity,Synedrella nodiflora [16],31.7%
same,Activity,Talinum fruticosum [17],21.7%
same,Activity,Euphorbia heterophylla [18],82.4%
same,Activity,Calopogonium mucunoides [19],1 /m2
same,Activity,Abelmoschus esculentus [20],85%
same,Activity,Calopogonium mucunoides [21],63.3%
same,Activity,Cyperus rotundus [22],50.8%
same,Activity,Ageratum conyzoides [23],95%
same,Activity,Chromolaena odorata [24],31 /m2
same,Activity,Ageratum conyzoides [25],90%
same,Activity,Synedrella nodiflora [26],33.3%
same,Activity,[27],31 /m2
same,Activity,Euphorbia heterophylla [28],95%
same,Activity,Corchorus olitorius [29],2.5 mm
same,Activity,Corchorus olitorius [30],68.3%
same,Activity,Chromolaena odorata [31],21.7%
same,Activity,Corchorus olitorius [32],2.4 mm
same,Activity,Chromolaena odorata [33],13.3%
same,Activity,Calopogonium mucunoides [34],82.4%
same,Activity,Synedrella nodiflora [35],31 /m2
same,Activity,[36],39.2%
